Tests used:
Cbl-b [1] = biological target: T1, Cbl-b (Homo sapiens, UniProt Q13191); assay: Cbl-b activity assay (Cbl-b inhibition assay), TR-FRET of Cbl-b interaction with UbcH5B-Ub; format: biochemical
How it was run: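 UbcH5B (C85K) conjugated to N-terminally Bodipy-Fluorescein-labeled ubiquitin served as the fluorescent partner. After compound preincubation, Src kinase (60 nM) with 1 mM ATP and 5 mM MgCl2 (final) was added for 1.5 h, followed by a further 1 h incubation. Some values were obtained with 50 mM NaCl and 30 nM Src.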

Cbl-b (residues 36-427) = Cbl-b (residues 36-427) (Homo sapiens, UniProt Q13191); assay: Cbl-b binding assay (SPR, Biacore T200); conditions: 20° C., 1:1 binding model
Description: SPR data was collected on a Biacore T200 (GE Healthcare) using a NeutrAvidin (Invitrogen) capture surface that was generated on a polycarboxylate hydrogel sensor chip of medium charge density (XanTec Bioanalytics GmbH) at 20° C. The surface was prepared using 20 mM HEPES, pH 7.5, 100 mM NaCl, 0.5 mM TCEP, 0.01% Triton X-100 as the immobilization buffer. Neutravidin was coupled to the sensor chip through EDC/NHS amine coupling. All steps were performed using a flow rate of 10 μl/min. First, the chip was preconditioned with a 3-min injection of 1 M NaCl, 0.1 M Borate followed by a 10-min equilibration in immobilization buffer. The surface was activated by a 5-min injection of 100 mM EDC/50 mM NHS. Next, 250 μg/mL NeutrAvidin buffered in 10 mM sodium acetate buffer, pH 5.0 was injected over the surface for 2 min. The surface was deactivated with 1 M Tris, pH 8.5 for 7 min then re-equilibrated in immobilization buffer for 7 min. […] Flow cell 1 served as a reference surface and was prepared without protein. All binding measurements were made in 20 mM HEPES, pH 7.5, 100 mM NaCl, 0.5 mM TCEP, 0.01% Triton X-100, 2% DMSO (referred as assay buffer) at 20° C. Compounds, prepared in assay buffer, were diluted from atop concentration of either 100 μM or 50 μM using either a 2- or 3-fold dilution scheme containing 8 or 10 points. Samples were injected for 50 s at 50 μl/min. Dissociation time varied from 90-180 s, depending on anticipated potency. The surface was regenerated by injection of 0.3 M NaCl, prepared in assay buffer for 20 s at 10 μl/min. Positive and negative control samples were run between each compound to monitor surface integrity.
Column marked with an asterisk (*) were tested as described above with assay buffer containing 50 mM NaCl instead of 100 mM NaCl and 30 nM Src kinase instead of 60 nM Src kinase. The resulting data for the Cbl-b binding assay was solvent corrected and double referenced prior to analysis. All data were globally fit to a steady-state affinity and kinetic binding model where applicable). Fit parameters were derived from a 1:1 binding model using the Biacore T200 Evaluation Software V2.0 (GE Healthcare) (Table 2).

Cbl-b [2] = biological target: T1, Cbl-b; assay: Cbl-b inhibition assay (Cbl-b activity assay, FRET, Biological Example 1; 100 mM NaCl, 60 nM Src kinase); format: biochemical; conditions: upper bound stated in text lists; read-out: IC50 values in the Cbl-b inhibition assay of Biological Example 1
How it was run: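 N-terminally biotinylated Avi-tagged Cbl-b was mixed with Src kinase, UbcH5B covalently conjugated to Bodipy-fluorescein ubiquitin, and streptavidin-terbium. Src phosphorylation lets Cbl-b bind UbcH5B-Ub, giving terbium-fluorescein FRET; inhibition is read as loss of FRET signal.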

T-cell [3] = assay: CD25 cell surface staining on T-cells stimulated with anti-CD3 antibody alone (Biological Example 2); format: cell-based, human; conditions: Homo sapiens, T-cell; 1 μM Cbl-b inhibitor; fold change over baseline (anti-CD3/anti-CD28 stimulated T-cells without inhibitor); read-out: CD25 staining Anti-CD3 stimulation
T-cell [4] = assay: CD25 cell surface staining on T-cells co-stimulated with anti-CD3 and anti-CD28 antibody (Biological Example 2); format: cell-based, human; conditions: Homo sapiens, T-cell, fold change over baseline (anti-CD3/anti-CD28 stimulated T-cells without inhibitor), read-out: CD25 staining Anti-CD3/Anti-CD28 stimulation; for fold induction at 0.3 µM: 0.3 μM Cbl-b inhibitor; for fold induction at 1 µM: 1 μM Cbl-b inhibitor
How it was run: (§1)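 T-cells were stimulated with anti-CD3 antibody alone or with anti-CD28 antibody, in the presence or absence of Cbl-b inhibitor. IL-2 secretion or CD25 surface staining was measured, and values expressed as fold over the uninhibited baseline […].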

T-cell [5] = assay: IL-2 secretion from T-cells stimulated with anti-CD3 antibody alone (Biological Example 2); format: cell-based, human; conditions: Homo sapiens, T-cell; 1 μM Cbl-b inhibitor; fold change over baseline (anti-CD3/anti-CD28 stimulated T-cells without inhibitor); read-out: IL-2 secretion Anti-CD3 stimulation
T-cell [6] = assay: IL-2 secretion from T-cells co-stimulated with anti-CD3 and anti-CD28 antibody (Biological Example 2); format: cell-based, human; conditions: Homo sapiens, T-cell, fold change over baseline (anti-CD3/anti-CD28 stimulated T-cells without inhibitor), read-out: IL-2 secretion Anti-CD3/Anti-CD28 stimulation; for fold induction at 0.3 µM: 0.3 μM Cbl-b inhibitor; for fold induction at 1 µM: 1 μM Cbl-b inhibitor
How it was run: as §1

[7] = assay buffer with 100 mM NaCl, 60 nM Src kinase, read-out: Cbl-b activity IC50
[8] = * assay buffer containing 50 mM NaCl instead of 100 mM NaCl and 30 nM Src kinase instead of 60 nM, read-out: Cbl-b activity IC50 (μM)*

T1 sequence (Q13191 36-427): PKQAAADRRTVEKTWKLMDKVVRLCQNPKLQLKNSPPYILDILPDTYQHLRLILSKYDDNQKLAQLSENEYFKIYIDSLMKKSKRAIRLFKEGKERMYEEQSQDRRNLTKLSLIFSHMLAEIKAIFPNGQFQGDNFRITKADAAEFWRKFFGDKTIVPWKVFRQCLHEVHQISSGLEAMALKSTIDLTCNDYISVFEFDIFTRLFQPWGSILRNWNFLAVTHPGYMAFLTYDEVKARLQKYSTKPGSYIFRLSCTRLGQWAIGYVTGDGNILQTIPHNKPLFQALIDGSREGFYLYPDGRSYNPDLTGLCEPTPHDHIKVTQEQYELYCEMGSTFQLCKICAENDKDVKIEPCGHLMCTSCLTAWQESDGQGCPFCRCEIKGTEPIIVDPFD
Cbl-b (residues 36-427), sequence (Q13191 36-427): as above

Row | SMILES | IC50 (Cbl-b [1]; [7]) [µM] | Kd (Cbl-b (residues 36-427)) [µM] | IC50 (Cbl-b [1]; [8]) [µM] | also measured
1 | C[C@@H](c1cccc(N2Cc3c(cccc3C(F)(F)F)C2=O)c1)[C@@H](F)c1nncn1C (single isomer, unassigned) [Compound 474a] | < 0.1 | 0.1 to 0.3 |  | 
2 | CC(Sc1nncn1C)c1cccc(NC(=O)c2cnc3ccccc3n2)c1 (centres unmarked) [Compound 17, N-(3-(1-((4-Methyl-4H-1,2,4-triazol-3-yl)thio)ethyl)phenyl)quinoxaline-2-carboxamide] |  | 3 to 10 | 3 to 10 | 
3 | CC(Sc1nncn1C)c1cccc(NC(=O)c2ccc3c(n2)CCCC3)c1 (centres unmarked) [Compound 23, N-(3-(1-((4-Methyl-4H-1,2,4-triazol-3-yl)thio)ethyl)phenyl)-5,6,7,8-tetrahydroquinoline-2-carboxamide] | 1 to 3 | 3 to 10 | 1 to 3 | IC50 (Cbl-b [2]): ≤ 10 µM
4 | C[C@H](Sc1nncn1C)c1cccc(NC(=O)c2cccc(C(F)(F)F)c2)c1 [Compound 29, (S)-N-(3-(1-((4-Methyl-4H-1,2,4-triazol-3-yl)thio)ethyl)phenyl)-3-(trifluoromethyl)benzamide] |  | > 10 | 3 to 10 | 
5 | CC(C)c1cccc(C(=O)Nc2cccc([C@H](C)Sc3nncn3C)c2)c1 [Compound 31, (S)-3-Isopropyl-N-(3-(1-((4-methyl-4H-1,2,4-triazol-3-yl)thio)ethyl)phenyl)benzamide] |  | > 10 | 3 to 10 | 
6 | CC(Sc1nncn1C)c1ccc(F)c(NC(=O)c2ccc3ccccc3n2)c1 (centres unmarked) [Compound 96, N-[2-fluoro-5-[1-[(4-methyl-1,2,4-triazol-3-yl)sulfanyl]ethyl]phenyl]quinoline-2-carboxamide] |  | > 10 | 3 to 10 | 
7 | COCC(Sc1nncn1C)c1cccc(NC(=O)c2cccc(C(F)(F)F)n2)c1 (centres unmarked) [Compound 133, N-[3-[2-methoxy-1-[(4-methyl-1,2,4-triazol-3-yl)sulfanyl]ethyl]phenyl]-6-(trifluoromethyl)pyridine-2-carboxamide] |  | 3 to 10 | 3 to 10 | 
8 | CCC(Sc1nncn1C)c1cccc(NC(=O)c2ccc3ccccc3n2)c1 (centres unmarked) [Compound 136, N-[3-[1-[(4-methyl-1,2,4-triazol-3-yl)sulfanyl]propyl]phenyl]quinoline-2-carboxamide] |  | 3 to 10 | 3 to 10 | 
9 | CCC(Sc1nncn1C)c1cccc(NC(=O)c2cc3ccccc3cn2)c1 (centres unmarked) [Compound 137, N-[3-[1-[(4-methyl-1,2,4-triazol-3-yl)sulfanyl]propyl]phenyl]isoquinoline-3-carboxamide] |  | 3 to 10 | 3 to 10 | 
10 | C[C@H](Sc1nncn1C)c1cccc(NC(=O)c2cc3cc(OCC(=O)O)ccc3cn2)c1 [Compound 305, (S)-2-((3-((3-(1-((4-methyl-4H-1,2,4-triazol-3-yl)thio)ethyl)phenyl)-carbamoyl)isoquinolin-6-yl)oxy)acetic acid] | 0.301 to 1 | > 10 |  | 
11 | CNC(=O)COc1ccc2cnc(C(=O)Nc3cccc([C@@H](C)Sc4nncn4C)c3)cc2c1 [Compound 306b, (R)-N-(3-(1-(4-methyl-4H-1,2,4-triazol-3-ylthio)ethyl)phenyl)-6-(2-(methylamino)-2-oxoethoxy)isoquinoline-3-carboxamide] | 3 to 10 | 3 to 10 |  | 
12 | C[C@H](Sc1nncn1C)c1cccc(NC(=O)c2cc3ccc(OCC(=O)O)cc3cn2)c1 [Compound 308, (S)-2-((3-((3-(1-((4-methyl-4H-1,2,4-triazol-3-yl)thio)ethyl)phenyl)carbamoyl)isoquinolin-7-yl)oxy)acetic acid] | 1 to 3 | 3 to 10 |  | 
13 | C[C@H](Sc1nncn1C)c1cccc(NC(=O)c2ccc3c(OCC(=O)O)cccc3n2)c1 [Compound 309, (S)-2-(2-(3-(1-(4-methyl-4H-1,2,4-triazol-3-ylthio)ethyl)phenylcarbamoyl)quinolin-5-yloxy)acetic acid] | 1 to 3 | 3 to 10 |  | 
14 | CNC(=O)COc1cccc2nc(C(=O)Nc3cccc([C@H](C)Sc4nncn4C)c3)ccc12 [Compound 310, (S)-N-(3-(1-((4-methyl-4H-1,2,4-triazol-3-yl)thio)ethyl)phenyl)-5-(2-(methylamino)-2-oxoethoxy)quinoline-2-carboxamide] | 0.301 to 1 | 0.301 to 1 |  | 
15 | Cn1cnnc1CC1(c2cccc(NC(=O)c3cc(CN4CC[C@H](F)C4)nc(C(F)(F)F)n3)c2)COC1 [Example 699, (S)-6-((3-fluoropyrrolidin-1-yl)methyl)-N-(3-(3-((4-methyl-4H-1,2,4-triazol-3-yl)methyl)oxetan-3-yl)phenyl)-2-(trifluoromethyl)pyrimidine-4-carboxamide] | < 0.1 |  |  | fold induction at 1 µM (T-cell [3]): 0.801 to 1; fold induction at 0.3 µM (T-cell [4]): 1.01 to 1.3; fold induction at 1 µM (T-cell [4]): 1.01 to 1.3; fold induction at 1 µM (T-cell [5]): 0.051 to 0.1; fold induction at 0.3 µM (T-cell [6]): 1.01 to 2.5; fold induction at 1 µM (T-cell [6]): 2.51 to 5; IC50 (Cbl-b [2]): ≤ 0.1 µM
16 | Cn1cnnc1OC1(c2cccc(N3Cc4c(cc(CN5CCC(F)CC5)cc4C(F)(F)F)C3=O)c2)COC1 [Example 700, 6-((4-fluoropiperidin-1-yl)methyl)-2-(3-(3-((4-methyl-4H-1,2,4-triazol-3-yl)oxy)oxetan-3-yl)phenyl)-4-(trifluoromethyl)isoindolin-1-one] | 0.1 to 0.3 |  |  | fold induction at 1 µM (T-cell [3]): 0.601 to 0.8; fold induction at 0.3 µM (T-cell [4]): 1.01 to 1.3; fold induction at 1 µM (T-cell [4]): 1.31 to 1.5; fold induction at 1 µM (T-cell [5]): < 0.05; fold induction at 0.3 µM (T-cell [6]): 1.01 to 2.5; fold induction at 1 µM (T-cell [6]): 2.51 to 5; IC50 (Cbl-b [2]): ≤ 0.3 µM
17 | COc1cccc2c1CN(Cc1cc3c(c(C(F)(F)F)c1)CN(c1cccc(C4(Cc5nncn5C)COC4)c1)C3=O)C2 [Example 702, 6-((4-methoxyisoindolin-2-yl)methyl)-2-(3-(3-((4-methyl-4H-1,2,4-triazol-3-yl)methyl)oxetan-3-yl)phenyl)-4-(trifluoromethyl)isoindolin-1-one] | < 0.1 |  |  | fold induction at 1 µM (T-cell [3]): > 1; fold induction at 0.3 µM (T-cell [4]): 1.51 to 1.75; fold induction at 1 µM (T-cell [4]): 1.51 to 1.75; fold induction at 1 µM (T-cell [5]): > 0.201; fold induction at 0.3 µM (T-cell [6]): 5 to 7.5; fold induction at 1 µM (T-cell [6]): > 7.5; IC50 (Cbl-b [2]): ≤ 0.1 µM
18 | Cn1cnnc1CC1(c2cccc(N3Cc4c(cc(CN5CCOC6(CCC6)C5)cc4C(F)(F)F)C3=O)c2)COC1 [Example 703, 6-((5-oxa-8-azaspiro[3.5]nonan-8-yl)methyl)-2-(3-(3-((4-methyl-4H-1,2,4-triazol-3-yl)methyl)oxetan-3-yl)phenyl)-4-(trifluoromethyl)isoindolin-1-one] | < 0.1 |  |  | fold induction at 1 µM (T-cell [3]): > 1; fold induction at 0.3 µM (T-cell [4]): 1.01 to 1.3; fold induction at 1 µM (T-cell [4]): 1.01 to 1.3; fold induction at 1 µM (T-cell [5]): > 0.201; fold induction at 0.3 µM (T-cell [6]): > 7.5; fold induction at 1 µM (T-cell [6]): > 7.5; IC50 (Cbl-b [2]): ≤ 0.1 µM

From patent US20220324835A1 (Nurix Therapeutics, Inc., priority 2018, published 2022)
